Where two headings read alike, the source gives them in different places.
Columns and labels:
[1] = system: KRAS_G12C pERK in MIA PaCa-2 cells; experiment: Whole Blood pERK1/2 HTRF assay (KRAS_G12C WB pERK assay); format: cell-based, human; conditions: compound in whole blood, 4 hours, read-out: G12C_WB_pERK
Experimental: MIA PaCa-2 cells (KRAS G12C; ATCC® CRL-1420), HPAF-II (KRAS G12D; ATCC® CRL-1997) and YAPC (KRAS G12V; DSMZ ACC382) are maintained in RPMI 1640 with 10% FBS (Gibco/Life Technologies). For MIA PaCa-2 assay, cells are seeded into 96 well tissue culture plates (Corning #3596) at 25000 cells per well in 100 uL media and cultured for 2 days at 37° C., 5% CO2 before the assay. For HPAF-II and YAPC assay, cells are seeded in 96 well tissue culture plates at 50000 cells per well in 100 uL media and cultured for 1 day before the assay. Whole Blood are added to the 1 uL dots of compounds (prepared in DMSO) in 96 well plates and mixed gently by pipetting up and down so that the concentration of the compound in blood is 1× of desired concentration, in 0.5% DMSO. The media is aspirated from the cells and 50 uL per well of whole blood with test compound is added and incubated for 4 hours for MIA PaCa and YAPC assay; or 2 hours for HPAF-II assay, respectively at 37° C., 5% CO2. After dumping the blood, the plates are gently washed twice by adding PBS to the side of the wells and dumping the PBS from the plate onto a paper towel, tapping the plate to drain well. Fifty ul/well of 1× lysis buffer #1 (Cisbio) with blocking reagent (Cisbio) and Benzonase nuclease (Sigma Cat #E1014-5KU, 1:10000 final concentration) is then added and incubated at room temperature for 30 minutes with shaking (250 rpm). Following lysis, 16 uL of lysate is transferred into 384-well Greiner small volume white plate using an Assist Plus (Integra Biosciences, NH). Four uL of 1:1 mixture of anti Phospho-ERK 1/2 d2 and anti Phospho-ERK 1/2 Cryptate (Cisbio) is added to the wells using the Assist Plus and incubated at room temperature overnight in the dark. Plates are read on the Pherastar plate reader at 665 nm and 620 nm wavelengths. Data are analyzed in Genedata Screener using SmartFit for IC50 values.

[2] = Human whole blood stability; format: in vitro ADME; conditions: percent remaining at 4 hr, 1 μM, 37° C.
Experimental: The whole blood stability of the exemplified compounds was determined by LC-MS/MS. The 96-Well Flexi-Tier™ Block (Analytical Sales & Services, Inc, Flanders, NJ) is used for the incubation plate containing 1.0 mL glass vials with 0.5 mL of blood per vial (pooled gender, human whole blood sourced from BIOIVT, Hicksville, NY or similar). Blood is pre-warmed in water bath to 37° C. for 30 minutes. 96-deep well analysis plate is prepared with the addition of 100 μL ultrapure water/well. 50 μL chilled ultrapure water/well is added to 96-deep well sample collection plate and covered with a sealing mat. 1 μL of 0.5 mM compound working solution (DMSO:water) is added to the blood in incubation plate to reach final concentrations of 1 μM, mixed by pipetting thoroughly and 50 μL is transferred 50 into the T=0 wells of the sample collection plate. Blood is allowed to sit in the water for 2 minutes and then 400 μL stop solution/well is added (acetonitrile containing an internal standard). The incubation plate is placed in the Incu-Shaker CO2 Mini incubator (Benchmark Scientific, Sayreville, NJ) at 37° C. with shaking at 150 rpm. At 1, 2 and 4-hr, the blood samples are mixed thoroughly by pipetting and 50 μL is transferred into the corresponding wells of the sample collection plate. Blood is allowed to sit in the water for 2 minutes and then 400 μL of stop solution/well is added. The collection plate is sealed and vortexed at 1700 rpm for 3 minutes (VX-2500 Multi-Tube Vortexer, VWR International, Radnor, PA), and samples are then centrifuged in the collection plate at 3500 rpm for 10 minutes (Allegra X-14R Centrifuge Beckman Coulter, Indianapolis, IN). 100 μL of supernatant/well is transferred from the sample collection plate into the corresponding wells of the analysis plate. The final plate is vortexed at 1700 rpm for 1 minute and analyze samples by LC-MS/MS. The peak area ratio of the 1, 2, and 4 hr samples relative to T=0 is used to determine the percent remaining. The natural log of the percent remaining versus time is used determine a slope to calculate the compounds half-life in blood (t1/2=0.693/slope).

KRAS_G12C pERK = experiment: Cellular pERK HTRF assay (KRAS_G12C pERK assay); format: cell-based, human; conditions: KRAS G12C cells, 4 hours incubation with compound, read-out: G12C_pERK
Experimental: MIA PaCa-2 (KRAS G12C; ATCC® CRL-1420), NCI-H358 (KRAS G12C; ATCC® CRL-5807), A427 (KRAS G12D; ATCC® HTB53), HPAFII (KRAS G12D; ATCC® CRL-1997), YAPC (KRAS G12V; DSMZ ACC382), SW480 (KRAS G12V; ATCC® CRL-228) and NCI-H838 (KRAS WT; ATCC® CRL-5844) cells are purchased from ATCC and maintained in RPMI 1640 media supplemented with 10% FBS (Gibco/Life Technologies). The cells are plated at 5000 cells per well (8 uL) into Greiner 384-well low volume, flat-bottom, and tissue culture treated white plates and incubated overnight at […], 5% CO2. The next morning, test compound stock solutions are diluted in media at 3× the final concentration and 4 uL are added to the cells, with a final concentration of 0.1% of DMSO. The cells are incubated with the test compounds for 4 hours (G12C and G12V) or 2 hrs (G12D) at 37° C., 5% CO2. Four uL of 4× lysis buffer with blocking reagent (Cisbio) are added to each well and plates are rotated gently (300 rpm) for 30 minutes at room temperature. Four uL per well of Cisbio anti Phospho-ERK 1/2 d2 is mixed with anti Phospho-ERK 1/2 Cryptate (1:1), and added to each well, incubated overnight in the dark at room temperature. Plates are read on the Pherastar plate reader at 665 nm and 620 nm wavelengths. Data are analyzed in Genedata Screener using SmartFit for IC50 values.

KRAS G12C = KRAS G12C (Homo sapiens, UniProt P01116, G12C); experiment: GDP-GTP exchange assay (KRAS_G12C exchange assay); format: biochemical; conditions: bodipy-loaded KRAS G12C 2.5 nM, SOS1 150 nM, 2 hours pre-incubation with inhibitor; read-out: G12C_exchange
Sequence of KRAS G12C (P01116 1-188 isoform P01116-2 G12C): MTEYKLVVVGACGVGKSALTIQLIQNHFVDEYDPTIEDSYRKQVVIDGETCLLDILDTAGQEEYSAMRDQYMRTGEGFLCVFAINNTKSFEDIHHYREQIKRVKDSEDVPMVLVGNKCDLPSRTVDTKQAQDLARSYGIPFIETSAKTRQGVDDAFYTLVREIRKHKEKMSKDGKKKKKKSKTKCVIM
Experimental: The inhibitor potency of the exemplified compounds was determined in a fluorescence based guanine nucleotide exchange assay, which measures the exchange of bodipy-GDP (fluorescently labeled GDP) for GppNHp (Non-hydrolyzable GTP analog) to generate the active state of KRAS in the presence of SOS1 (guanine nucleotide exchange factor). Inhibitors were serially diluted in DMSO and a volume of 0.1 μL was transferred to the wells of a black low volume 384-well plate. 5 μL/well volume of bodipy-loaded KRAS G12C diluted to 5 nM in assay buffer (25 mM Hepes pH 7.5, 50 mM NaCl, 10 mM MgCl2 and 0.01% Brij-35) was added to the plate and pre-incubated with inhibitor for 2 hours at ambient temperature. Appropriate controls (enzyme with no inhibitor or with a G12C inhibitor (AMG-510)) were included on the plate. The exchange was initiated by the addition of a 5 μL/well volume containing 1 mM GppNHp and 300 nM SOS1 in assay buffer. The 10 μL/well reaction concentration of the bodipy-loaded KRAS G12C, GppNHp, and SOS1 were 2.5 nM, 500 uM, and 150 nM, respectively. The reaction plates were incubated at ambient temperature for 2 hours, a time estimated for complete GDP-GTP exchange in the absence of inhibitor. For the KRAS G12D and G12V mutants, similar guanine nucleotide exchange assays were used with 2.5 nM as final concentration for the bodipy loaded KRAS proteins and with 4 hours and 3 hours incubation after adding GppNHp-SOS1 mixture for G12D and G12V respectively. A cyclic peptide described to selectively bind G12D mutant (Sakamoto et al., BBRC 484.3 (2017), 605-611) or internal compounds with confirmed binding were used as positive controls in the assay plates. Fluorescence intensities were measured on a PheraStar plate reader instrument (BMG Labtech) with excitation at 485 nm and emission at 520 nm.
Either GraphPad prism or Genedata Screener SmartFit was used to analyze the data. The IC50 values were derived by fitting the data to a four parameter logistic equation producing a sigmoidal dose-response curve with a variable Hill coefficient.

Row | Structure (SMILES) | IC50 ([1]; Homo sapiens) [nM] | Human whole blood stability at 4 hr [2] | IC50 (KRAS_G12C pERK; Homo sapiens, 4 h) [nM] | IC50 (KRAS G12C) [nM] | IC50 (KRAS_G12C pERK) [nM] | IC50 [1] [nM]
1 | CN(C)C1(C)CN(c2nc3c(F)c(-c4ccc(F)c5cccnc45)c(C(F)(F)F)cc3c3c2nnn3[C@H]2CCN(C(=O)/C=C/CF)[C@H](CC#N)C2)C1 (single isomer, unassigned) [Example 1a] | ≤ 50 | ††† (WBS >90%) | ≤ 50 | ≤ 50 | – | –
2 | COc1c(C)cccc1-c1c(C(F)(F)F)cc2c(nc(N3CC(C)(N(C)C)C3)c3nnn([C@H]4CCN(C(=O)/C=C/CF)[C@H](CC#N)C4)c32)c1F (single isomer, unassigned) [Example 2a] | ≤ 50 | †† (WBS >70% but ≤90%) | ≤ 50 | ≤ 50 | – | –
3 | COC/C=C/C(=O)N1CC[C@H](n2nnc3c(O[C@@H](C)[C@@H]4CCCN4C)nc4c(F)c(-c5c(C)ncc6ccccc56)c(C)cc4c32)C[C@H]1CC#N (single isomer, unassigned) [Example 24b] | ≤ 50 | – | – | ≤ 50 | ≤ 50 | –
4 | C=C(F)C(=O)N1CC[C@H](n2nnc3c(O[C@@H](C)[C@@H]4CCCN4C)nc4c(F)c(-c5c(F)ccc6ccc(C)nc56)c(C)cc4c32)C[C@H]1CC#N (single isomer, unassigned) [Example 25a] | 50 to 100 | – | ≤ 50 | ≤ 50 | – | –
5 | COC/C=C/C(=O)N1CC[C@H](n2nnc3c(O[C@@H](C)[C@@H]4CCCN4C)nc4c(F)c(-c5cnc(C)c6ccccc56)c(C)cc4c32)C[C@H]1CC#N (single isomer, unassigned) [Example 26a] | 50 to 100 | – | ≤ 50 | ≤ 50 | – | –
6 | C=C(F)C(=O)N1CC[C@H](n2nnc3c(O[C@@H](C)[C@@H]4CCCN4C)nc4c(F)c(-c5c(F)ccc6cccnc56)c(C)cc4c32)C[C@H]1CC#N (single isomer, unassigned) [Example 27a] | 50 to 100 | – | ≤ 50 | ≤ 50 | – | –
7 | C=C(F)C(=O)N1CC[C@H](n2nnc3c(O[C@@H](C)[C@@H]4CCCN4C)nc4c(F)c(-c5c(F)ccc6cccnc56)c(C)cc4c32)C[C@H]1CC#N (single isomer, unassigned) [Example 27b] | – | – | – | ≤ 50 | ≤ 50 | 50 to 100
8 | COC/C=C/C(=O)N1CC[C@H](n2nnc3c(O[C@@H](C)[C@@H]4CCCN4C)nc4c(F)c(-c5c(F)cccc5OC)c(C)cc4c32)C[C@H]1CC#N (single isomer, unassigned) [Example 34b] | ≤ 50 | ††† (WBS >90%) | – | ≤ 50 | – | –
9 | COC/C=C/C(=O)N1CC[C@H](n2nnc3c(N4CC(C)(N(C)C)C4)nc4c(F)c(-c5cccc(C)c5C)c(C)cc4c32)C[C@H]1CC#N [Example 6, 2-((2S,4S)-4-(4-(3-(dimethylamino)-3-methylazetidin-1-yl)-7-(2,3-dimethylphenyl)-6-fluoro-8-methyl-1H-[1,2,3]triazolo[4,5-c]quinolin-1-yl)-1-((E)-4-methoxybut-2-enoyl)piperidin-2-yl)acetonitrile] | 100 to 1000 | – | ≤ 50 | ≤ 50 | – | –
10 | COC/C=C/C(=O)N1CC[C@H](n2nnc3c(O[C@@H](C)[C@@H]4CCCN4C)nc4c(F)c(-c5nn(C)c6ccccc56)c(C)cc4c32)C[C@H]1CC#N [Example 9, 2-((2S,4S)-4-(6-fluoro-8-methyl-7-(1-methyl-1H-indazol-3-yl)-4-((S)-1-((S)-1-methylpyrrolidin-2-yl)ethoxy)-1H-[1,2,3]triazolo[4,5-c]quinolin-1-yl)-1-((E)-4-methoxybut-2-enoyl)piperidin-2-yl)acetonitrile] | ≤ 50 | – | ≤ 50 | ≤ 50 | – | –
11 | C=C(F)C(=O)N1CC[C@H](n2nnc3c(O[C@@H](C)[C@@H]4CCCN4C)nc4c(F)c(-c5ncc(F)c6ccccc56)c(C)cc4c32)C[C@H]1CC#N [Example 22, 2-((2S,4S)-4-(6-fluoro-7-(4-fluoroisoquinolin-1-yl)-8-methyl-4-((S)-1-((S)-1-methylpyrrolidin-2-yl)ethoxy)-1H-[1,2,3]triazolo[4,5-c]quinolin-1-yl)-1-(2-fluoroacryloyl)piperidin-2-yl)acetonitrile] | ≤ 50 | – | ≤ 50 | ≤ 50 | – | –

— patent US12441727B2, “Tricyclic compounds as inhibitors of KRAS” (Incyte Corporation, priority 2021, dated 2025)
